# In patent publication US20150141336A1, “Pancreatic Peptide Compounds and Use” (Novo Nordisk A/S, priority 2012, published 2015):
# Numbered stars: 1 amine (or outer) side, 2 acyl side, 3 side chain; on linkers, the order of the positions; unused ones are H or OH. Side chains are listed from the residue outwards. Peptide text beside a SMILES is read from it. * marks the point of attachment. C18 diacid = O=C(O)CCCCCCCCCCCCCCCCC(=O)*; γGlu = O=C(O)[C@H](CCC(=O)[*:2])N[*:1]; AEEA = NCCOCCOCC(=O)O
# Assay: Assay (II) PK i.v. minipig, in vivo half-life
# Design: species or system Göttingen mini-pigs
# Conditions: male, Göttingen, minipig, iv, Half-life minipig, Assay (II)
# In short: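 Plasma levels after a single 6 nmol/kg intravenous dose in five male Göttingen mini-pigs were measured by TFC/LC/MS/MS against spiked-plasma calibration, sampling to 240 h. Vehicle: 50 mM K2HPO4, 0.05% tween 80, pH 8.0. Individual profiles analysed non-compartmentally for half-life.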
row,Compound,half-life [h]
1,CC[C@H](C)[C@H](NC(=O)[C@H](CCCCNC(=O)COCCOCCNC(=O)COCCOCCNC(=O)CC[C@H](NC(=O)CCCCCCCCCCCCCCCCC(=O)O)C(=O)O)NC(=O)[C@H](CCCNC(=N)N)NC(=O)[C@H](CCCNC(=N)N)NC(=O)[C@H](CC(C)C)NC(=O)[C@H](CC(=O)O)NC(=O)[C@H](C)NC(=O)[C@H](C)NC(=O)[C@H](Cc1ccc(O)cc1)NC(=O)[C@H](CCC(N)=O)NC(=O)[C@H](C)NC(=O)[C@H](CCSC)NC(=O)[C@H](CCC(N)=O)NC(=O)[C@H](CCC(=O)O)NC(=O)[C@@H]1CCCN1C(=O)[C@@H](NC(=O)[C@H](C)NC(=O)[C@H](CC(N)=O)NC(=O)[C@H](CC(=O)O)NC(=O)CNC(=O)[C@@H]1CCCN1C(=O)[C@H](Cc1ccc(O)cc1)NC(=O)[C@@H](NC(=O)[C@@H]1CCCN1C(=O)[C@H](CCC(=O)O)NC(=O)[C@@H](N)CC(C)C)C(C)C)[C@@H](C)O)C(=O)N[C@@H](CC(N)=O)C(=O)N[C@@H](CCSC)C(=O)N[C@@H](CC(C)C)C(=O)N[C@H](C(=O)N[C@@H](CCCNC(=N)N)C(=O)N1CCC[C@H]1C(=O)N[C@@H](CCCNC(=N)N)C(=O)N[C@@H](Cc1ccc(O)cc1)C(N)=O)[C@@H](C)O [Compound AO] (H-LEPVYPGDNATPEQMAQYAADLRRK([AEEA-AEEA-γGlu-C18 diacid])INMLTRPRY-NH2; N-terminus and C-terminus assumed),44
2,CC[C@H](C)[C@H](NC(=O)[C@H](Cc1ccc(O)cc1)NC(=O)[C@H](CCCNC(=N)N)NC(=O)[C@H](CCCNC(=N)N)NC(=O)[C@H](CC(C)C)NC(=O)[C@H](CC(=O)O)NC(=O)[C@H](C)NC(=O)[C@H](C)NC(=O)[C@H](CCCCNC(=O)COCCOCCNC(=O)COCCOCCNC(=O)CC[C@H](NC(=O)CCCCCCCCCCCCCCCCC(=O)O)C(=O)O)NC(=O)[C@H](CCC(N)=O)NC(=O)[C@H](C)NC(=O)[C@H](CCSC)NC(=O)[C@H](CCC(N)=O)NC(=O)[C@H](CCC(=O)O)NC(=O)[C@@H]1CCCN1C(=O)[C@@H](NC(=O)[C@H](C)NC(=O)[C@H](CC(N)=O)NC(=O)[C@H](CC(=O)O)NC(=O)CNC(=O)[C@@H]1CCCN1C(=O)[C@H](Cc1ccc(O)cc1)NC(=O)[C@@H](NC(=O)[C@@H]1CCCN1C(=O)[C@H](CCC(=O)O)NC(=O)[C@H](CC(C)C)NC(=O)[C@@H]1CCCN1)C(C)C)[C@@H](C)O)C(=O)N[C@@H](CC(N)=O)C(=O)N[C@@H](CCSC)C(=O)N[C@@H](CC(C)C)C(=O)N[C@H](C(=O)N[C@@H](CCCNC(=N)N)C(=O)N1CCC[C@H]1C(=O)N[C@@H](CCCNC(=N)N)C(=O)N[C@@H](Cc1ccc(O)cc1)C(N)=O)[C@@H](C)O [Compound N] (H-PLEPVYPGDNATPEQMAQK([AEEA-AEEA-γGlu-C18 diacid])AADLRRYINMLTRPRY-NH2; N-terminus and C-terminus assumed),44

# The next lines start with the values.
row,half-life [h],Compound
1,31,CC[C@H](C)[C@H](NC(=O)[C@H](Cc1ccc(O)cc1)NC(=O)[C@H](CCCNC(=N)N)NC(=O)[C@H](CCCNC(=N)N)NC(=O)[C@H](CCCCNC(=O)COCCOCCNC(=O)COCCOCCNC(=O)CC[C@H](NC(=O)CCCCCCCCCCCCCCCCC(=O)O)C(=O)O)NC(=O)[C@H](CC(=O)O)NC(=O)[C@H](C)NC(=O)[C@H](C)NC(=O)[C@H](Cc1ccc(O)cc1)NC(=O)[C@H](CCC(N)=O)NC(=O)[C@H](C)NC(=O)[C@H](CCSC)NC(=O)[C@H](CCC(N)=O)NC(=O)[C@H](CCC(=O)O)NC(=O)[C@@H]1CCCN1C(=O)[C@@H](NC(=O)[C@H](C)NC(=O)[C@H](CC(N)=O)NC(=O)[C@H](CC(=O)O)NC(=O)CNC(=O)[C@@H]1CCCN1C(=O)[C@H](Cc1ccc(O)cc1)NC(=O)[C@@H](NC(=O)[C@@H]1CCCN1C(=O)[C@H](CCC(=O)O)NC(=O)[C@@H](N)CC(C)C)C(C)C)[C@@H](C)O)C(=O)N[C@@H](CC(N)=O)C(=O)N[C@@H](CCSC)C(=O)N[C@@H](CC(C)C)C(=O)N[C@H](C(=O)N[C@@H](CCCNC(=N)N)C(=O)N1CCC[C@H]1C(=O)N[C@@H](CCCNC(=N)N)C(=O)N[C@@H](Cc1ccc(O)cc1)C(N)=O)[C@@H](C)O [Compound AR] (H-LEPVYPGDNATPEQMAQYAADK([AEEA-AEEA-γGlu-C18 diacid])RRYINMLTRPRY-NH2; N-terminus and C-terminus assumed)
2,25,CC[C@H](C)[C@H](NC(=O)[C@H](Cc1ccc(O)cc1)NC(=O)[C@H](CCCNC(=N)N)NC(=O)[C@H](CCCNC(=N)N)NC(=O)[C@H](CC(C)C)NC(=O)[C@H](CC(=O)O)NC(=O)[C@H](C)NC(=O)[C@H](C)NC(=O)[C@H](Cc1ccc(O)cc1)NC(=O)[C@H](CCC(N)=O)NC(=O)[C@H](C)NC(=O)[C@H](CCCCNC(=O)COCCOCCNC(=O)COCCOCCNC(=O)CC[C@H](NC(=O)CCCCCCCCCCCCCCCCC(=O)O)C(=O)O)NC(=O)[C@H](CCC(N)=O)NC(=O)[C@H](CCC(=O)O)NC(=O)[C@@H]1CCCN1C(=O)[C@@H](NC(=O)[C@H](C)NC(=O)[C@H](CC(N)=O)NC(=O)[C@H](CC(=O)O)NC(=O)CNC(=O)[C@@H]1CCCN1C(=O)[C@H](Cc1ccc(O)cc1)NC(=O)[C@@H](NC(=O)[C@@H]1CCCN1C(=O)[C@H](CCC(=O)O)NC(=O)[C@@H](N)CC(C)C)C(C)C)[C@@H](C)O)C(=O)N[C@@H](CC(N)=O)C(=O)N[C@@H](CCSC)C(=O)N[C@@H](CC(C)C)C(=O)N[C@H](C(=O)N[C@@H](CCCNC(=N)N)C(=O)N1CCC[C@H]1C(=O)N[C@@H](CCCNC(=N)N)C(=O)N[C@@H](Cc1ccc(O)cc1)C(N)=O)[C@@H](C)O [Compound AY] (H-LEPVYPGDNATPEQK([AEEA-AEEA-γGlu-C18 diacid])AQYAADLRRYINMLTRPRY-NH2; N-terminus and C-terminus assumed)
3,10,CC[C@H](C)[C@H](NC(=O)[C@H](Cc1ccc(O)cc1)NC(=O)[C@H](CCCNC(=N)N)NC(=O)[C@H](CCCNC(=N)N)NC(=O)[C@H](CC(C)C)NC(=O)[C@H](CCCCNC(=O)COCCOCCNC(=O)COCCOCCNC(=O)CC[C@H](NC(=O)CCCCCCCCCCCCCCCCC(=O)O)C(=O)O)NC(=O)[C@H](C)NC(=O)[C@H](C)NC(=O)[C@H](Cc1ccc(O)cc1)NC(=O)[C@H](CCC(N)=O)NC(=O)[C@H](C)NC(=O)[C@H](CCSC)NC(=O)[C@H](CCC(N)=O)NC(=O)[C@H](CCC(=O)O)NC(=O)[C@@H]1CCCN1C(=O)[C@@H](NC(=O)[C@H](C)NC(=O)[C@H](CC(N)=O)NC(=O)[C@H](CC(=O)O)NC(=O)CNC(=O)[C@@H]1CCCN1C(=O)[C@H](Cc1ccc(O)cc1)NC(=O)[C@@H](NC(=O)[C@@H]1CCCN1C(=O)[C@H](CCC(=O)O)NC(=O)[C@@H](N)CC(C)C)C(C)C)[C@@H](C)O)C(=O)N[C@@H](CC(N)=O)C(=O)N[C@@H](CCSC)C(=O)N[C@@H](CC(C)C)C(=O)N[C@H](C(=O)N[C@@H](CCCNC(=N)N)C(=O)N1CCC[C@H]1C(=O)N[C@@H](CCCNC(=N)N)C(=O)N[C@@H](Cc1ccc(O)cc1)C(N)=O)[C@@H](C)O [Compound AS] (H-LEPVYPGDNATPEQMAQYAAK([AEEA-AEEA-γGlu-C18 diacid])LRRYINMLTRPRY-NH2; N-terminus and C-terminus assumed)
